Source: US12139492B2 (Endotarget Inc., priority 2021, dated 2024)
Where two headings read alike, the source gives them in different places.

How the values were obtained:
Mino cells = assay: Antiproliferative effect, MTS cell viability assay, Mino cells; type: cell-based; conditions: Homo sapiens, MINO, Mino mantle cell lymphoma cells; read-out: IC50 (anti-proliferation) Mino cells
In short: (§1)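 Absorbance at 490 nm of formazan, formed by metabolically active cells from MTS tetrazolium, served as the viability measure after a 72 h treatment across a 0.001–10 μM concentration series plus untreated control.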

JeKo-1 cells = assay: Antiproliferative effect, MTS cell viability assay, JeKo-1 cells; type: cell-based; conditions: Homo sapiens; JeKo-1 mantle cell lymphoma cells; read-out: IC50 (anti-proliferation) JeKO-1 cells
In short: as §1

BTK = BTK (Homo sapiens, UniProt Q06187); assay: Degradation of BTK protein in Namalwa cells (Western blot; DC50, Dmax); conditions: for DC50: cell line not given
Chain of BTK (Q06187 whole entry): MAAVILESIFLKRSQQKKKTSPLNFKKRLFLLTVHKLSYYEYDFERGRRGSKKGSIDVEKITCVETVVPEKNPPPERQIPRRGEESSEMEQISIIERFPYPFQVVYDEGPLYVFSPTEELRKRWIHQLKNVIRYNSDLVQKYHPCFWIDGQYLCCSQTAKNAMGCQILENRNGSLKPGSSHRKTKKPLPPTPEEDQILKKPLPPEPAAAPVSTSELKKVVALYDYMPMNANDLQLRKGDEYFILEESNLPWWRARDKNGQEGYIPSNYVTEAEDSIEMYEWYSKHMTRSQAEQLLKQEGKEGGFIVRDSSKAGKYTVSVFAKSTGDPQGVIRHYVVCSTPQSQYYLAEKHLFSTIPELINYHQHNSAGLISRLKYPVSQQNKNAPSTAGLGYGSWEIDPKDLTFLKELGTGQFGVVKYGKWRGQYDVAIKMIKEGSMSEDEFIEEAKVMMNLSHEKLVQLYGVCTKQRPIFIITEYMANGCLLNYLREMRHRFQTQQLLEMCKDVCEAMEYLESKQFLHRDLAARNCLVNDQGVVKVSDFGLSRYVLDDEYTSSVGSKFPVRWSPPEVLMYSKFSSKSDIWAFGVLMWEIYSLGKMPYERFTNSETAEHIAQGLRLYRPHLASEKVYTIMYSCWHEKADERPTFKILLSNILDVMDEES

[1] = read-out: DC50 (BTK degradation), concentration giving 50% reduction of BTK expression level
[2] = read-out: Dmax (BTK degradation)

Compound | Dmax (BTK) | DC50 (BTK; BTK degradation) | DC50 (BTK; [1]) | Dmax (BTK; [2]) | degradation of BTK protein (BTK; Namalwa B lymphocyte cells, various concentrations, 24 hours, Western blot) | IC50 (Mino cells) | IC50 (JeKo-1 cells)
Nc1ncnc2c1c(-c1ccc(Oc3ccccc3)cc1)nn2C1CCN(CC2CCN(CC3CCN(c4ccc5c(c4)oc(=O)n5C4CCC(=O)NC4=O)CC3)CC2)CC1 (stereo not drawn) [Compound 544, 3-(6-(4-((4-((4-(4-amino-3-(4-phenoxyphenyl)-1H-pyrazolo[3,4-d]pyrimidin-1-yl)piperidin-1-yl)methyl)piperidin-1-yl)methyl)piperidin-1-yl)-2-oxobenzo[d]oxazol-3(2H)-yl)piperidine-2,6-dione] |  |  | 0.01 to 0.05 µM | > 90% |  | 1 to 10 µM | 1 to 10 µM
Nc1ncnc2c1c(-c1ccc(Oc3ccccc3)cc1)nn2C1CCN(C(=O)C2CC(N3CCN(c4ccc5c(c4)C(=O)N(C4CCC(=O)NC4=O)C5=O)CC3)C2)CC1 (stereo not drawn) [Compound 507, 5-(4-(3-(4-(4-amino-3-(4-phenoxyphenyl)-1H-pyrazolo[3,4-d]pyrimidin-1-yl)piperidine-1-carbonyl)cyclobutyl)piperazin-1-yl)-2-(2,6-dioxopiperidin-3-yl)isoindoline-1,3-dione] |  |  | < 0.01 µM | > 90% |  | < 1 µM | < 1 µM
Nc1ncnc2c1c(-c1ccc(Oc3ccccc3)cc1)nn2[C@@H]1CCCN(C2CCN(C(=O)N3CCC(CCCN4CCC(c5ccc6c(c5)C(=O)N(C5CCC(=O)NC5=O)C6=O)CC4)CC3)CC2)C1 (stereo partly drawn) [Compound 197, 5-(1-(3-(1-((R)-3-(4-amino-3-(4-phenoxyphenyl)-1H-pyrazolo[3,4-d]pyrimidin-1-yl)-[1,4′-bipiperidine]-1′-carbonyl)piperidin-4-yl)propyl)piperidin-4-yl)-2-(2,6-dioxopiperidin-3-yl)isoindoline-1,3-dione] | > 75% | 0.01 to 0.05 µM |  |  |  | 1 to 10 µM | > 10 µM
Nc1ncnc2c1c(-c1ccc(Oc3ccccc3)cc1)nn2C1CCN(C2CCN(CCCN3CCC(c4ccc(N5CCC(=O)NC5=O)cc4)CC3)CC2)CC1 [Compound 571, 1-(4-(1-(3-(4-(4-amino-3-(4-phenoxyphenyl)-1H-pyrazolo[3,4-d]pyrimidin-1-yl)-[1,4′-bipiperidin]-1′-yl)propyl)piperidin-4-yl)phenyl)dihydropyrimidine-2,4(1H,3H)-dione] |  |  | 0.01 to 0.05 µM | > 90% |  | < 1 µM | < 1 µM
Nc1ncnc2c1c(-c1ccc(Oc3ccccc3)cc1)nn2C1CCN(C2CCN(CC3CCN(CC4CN(c5ccc6c(c5)C(=O)N(C5CCC(=O)NC5=O)C6=O)C4)CC3)CC2)CC1 (stereo not drawn) [Compound 435, 5-(3-((4-((4-(4-amino-3-(4-phenoxyphenyl)-1H-pyrazolo[3,4-d]pyrimidin-1-yl)-[1,4′-bipiperidin]-1′-yl)methyl)piperidin-1-yl)methyl)azetidin-1-yl)-2-(2,6-dioxopiperidin-3-yl)isoindoline-1,3-dione] |  |  | < 0.01 µM | > 90% | dose-dependent degradation | < 1 µM | 1 to 10 µM
Nc1ncnc2c1c(-c1ccc(Oc3ccccc3)cc1)nn2C1CCN(C2CCN(C(=O)N3CCN(CCC4CCN(c5ccc6c(c5)CN(C5CCC(=O)NC5=O)C6=O)CC4)CC3)CC2)CC1 (stereo not drawn) [Compound 248] | > 75% | 0.01 to 0.05 µM |  |  |  | < 1 µM | 1 to 10 µM
Nc1ncnc2c1c(-c1ccc(Oc3ccccc3)cc1)nn2[C@@H]1CCCN(CC2CCN(c3ccc(N4CCC(=O)NC4=O)cc3)CC2)C1 [Compound 529, (R)-1-(4-(4-((3-(4-amino-3-(4-phenoxyphenyl)-1H-pyrazolo[3,4-d]pyrimidin-1-yl)piperidin-1-yl)methyl)piperidin-1-yl)phenyl)dihydropyrimidine-2,4(1H,3H)-dione] |  |  | 0.01 to 0.05 µM | > 50% |  | > 10 µM | > 10 µM
Nc1ncnc2c1c(-c1ccc(Oc3ccccc3)cc1)nn2C1CCC(C(=O)N2CC(N3CCN(c4ccc5c(c4)CN(C4CCC(=O)NC4=O)C5=O)CC3)C2)CC1 (stereo not drawn) [Compound 512, 3-(5-(4-(1-(4-(4-amino-3-(4-phenoxyphenyl)-1H-pyrazolo[3,4-d]pyrimidin-1-yl)cyclohexane-1-carbonyl)azetidin-3-yl)piperazin-1-yl)-1-oxoisoindolin-2-yl)piperidine-2,6-dione] |  |  | < 0.01 µM | > 90% |  | < 1 µM | < 1 µM

Second part, led by results:

Dmax (BTK) | DC50 (BTK; BTK degradation) | DC50 (BTK; [1]) | Dmax (BTK; [2]) | degradation of BTK protein (BTK; Namalwa B lymphocyte cells, various concentrations, 24 hours, Western blot) | Compound | IC50 (Mino cells) | IC50 (JeKo-1 cells)
> 90% | < 0.01 µM |  |  |  | NC(=O)c1c(-c2ccc(Oc3ccccc3)cc2)nn2c1NCC[C@H]2C1CCN(C2CCN(C(=O)N3CCC(C4CCN(c5ccc6c(c5)CN(C5CCC(=O)NC5=O)C6=O)CC4)CC3)CC2)CC1 (stereo partly drawn) [Compound 384, (7S)-7-(1′-(1′-(2-(2,6-dioxopiperidin-3-yl)-1-oxoisoindolin-5-yl)-[4,4′-bipiperidine]-1-carbonyl)-[1,4′-bipiperidin]-4-yl)-2-(4-phenoxyphenyl)-4,5,6,7-tetrahydropyrazolo[1,5-a]pyrimidine-3-carboxamide] | < 1 µM | 1 to 10 µM
> 90% | 0.01 to 0.05 µM |  |  |  | NC(=O)c1c(-c2ccc(Oc3ccccc3)cc2)nn2c1NCCC2C1CCN(C2CCN(C(=O)N3CCC(CC4CCN(c5ccc6c(c5)CN(C5CCC(=O)NC5=O)C6=O)CC4)CC3)CC2)CC1 (stereo not drawn) [Compound 354, 7-(1′-(4-((1-(2-(2,6-dioxopiperidin-3-yl)-1-oxoisoindolin-5-yl)piperidin-4-yl)methyl)piperidine-1-carbonyl)-[1,4′-bipiperidin]-4-yl)-2-(4-phenoxyphenyl)-4,5,6,7-tetrahydropyrazolo[1,5-a]pyrimidine-3-carboxamide] | 1 to 10 µM | 1 to 10 µM
> 50% | > 0.05 µM |  |  |  | NC(=O)c1c(-c2ccc(Oc3ccccc3)cc2)nn2c1NCCC2C1CCN(C2CCN(C(=O)N3CCN(c4ccc5c(c4)CN(C4CCC(=O)NC4=O)C5=O)CC3)CC2)CC1 (stereo not drawn) [Compound 338, 7-(1′-(4-(2-(2,6-dioxopiperidin-3-yl)-1-oxoisoindolin-5-yl)piperazine-1-carbonyl)-[1,4′-bipiperidin]-4-yl)-2-(4-phenoxyphenyl)-4,5,6,7-tetrahydropyrazolo[1,5-a]pyrimidine-3-carboxamide] | 1 to 10 µM | > 10 µM
> 90% | < 0.01 µM |  |  |  | NC(=O)c1c(-c2ccc(Oc3ccccc3)cc2)nn2c1NCCC2C1CCN(C2CCN(C(=O)N3CCC(CN4CCC(c5ccc6c(c5)CN(C5CCC(=O)NC5=O)C6=O)CC4)CC3)CC2)CC1 (stereo not drawn) [Compound 356, 7-(1′-(4-((4-(2-(2,6-dioxopiperidin-3-yl)-1-oxoisoindolin-5-yl)piperidin-1-yl)methyl)piperidine-1-carbonyl)-[1,4′-bipiperidin]-4-yl)-2-(4-phenoxyphenyl)-4,5,6,7-tetrahydropyrazolo[1,5-a]pyrimidine-3-carboxamide] | < 1 µM | 1 to 10 µM
 |  | 0.01 to 0.05 µM | > 90% |  | NC(=O)c1c(-c2ccc(Oc3ccccc3)cc2)nn2c1NCC[C@H]2C1CCN(CC2CCN(C(=O)N3CCN(CC4CCN(c5ccc6c(c5)C(=O)N(C5CCC(=O)NC5=O)C6=O)CC4)CC3)CC2)CC1 (stereo partly drawn) [Compound 411, (7S)-7-(1-((1-(4-((1-(2-(2,6-dioxopiperidin-3-yl)-1,3-dioxoisoindolin-5-yl)piperidin-4-yl)methyl)piperazine-1-carbonyl)piperidin-4-yl)methyl)piperidin-4-yl)-2-(4-phenoxyphenyl)-4,5,6,7-tetrahydropyrazolo[1,5-a]pyrimidine-3-carboxamide] | < 1 µM | 1 to 10 µM
> 75% | > 0.05 µM |  |  |  | NC(=O)c1c(-c2ccc(Oc3ccccc3)cc2)nn2c1NCCC2C1CCN(C2CCN(CCN3CCC(c4ccc5c(c4)CN(C4CCC(=O)NC4=O)C5=O)CC3)CC2)CC1 (stereo not drawn) [Compound 312, 7-(1′-(2-(4-(2-(2,6-dioxopiperidin-3-yl)-1-oxoisoindolin-5-yl)piperidin-1-yl)ethyl)-[1,4′-bipiperidin]-4-yl)-2-(4-phenoxyphenyl)-4,5,6,7-tetrahydropyrazolo[1,5-a]pyrimidine-3-carboxamide] | > 10 µM | > 10 µM
> 75% | 0.01 to 0.05 µM |  |  |  | NC(=O)c1c(-c2ccc(Oc3ccccc3)cc2)nn2c1NCC[C@H]2C1CCN(C2CCN(CC3CCN(c4ccc5c(c4)C(=O)N(C4CCC(=O)NC4=O)C5=O)CC3)CC2)CC1 (stereo partly drawn) [Compound 321, (7S)-7-(1′-((1-(2-(2,6-dioxopiperidin-3-yl)-1,3-dioxoisoindolin-5-yl)piperidin-4-yl)methyl)-[1,4′-bipiperidin]-4-yl)-2-(4-phenoxyphenyl)-4,5,6,7-tetrahydropyrazolo[1,5-a]pyrimidine-3-carboxamide] | > 10 µM | > 10 µM
> 75% | 0.01 to 0.05 µM |  |  |  | Nc1ncnc2c1c(-c1ccc(Oc3ccccc3)cc1)nn2[C@@H]1CCCN(C2CCN(C(=O)N3CCC(CCCC4CCN(c5ccc6c(c5)CN(C5CCC(=O)NC5=O)C6=O)CC4)CC3)CC2)C1 (stereo partly drawn) [Compound 196, 3-(5-(4-(3-(1-((R)-3-(4-amino-3-(4-phenoxyphenyl)-1H-pyrazolo[3,4-d]pyrimidin-1-yl)-[1,4′-bipiperidine]-1′-carbonyl)piperidin-4-yl)propyl)piperidin-1-yl)-1-oxoisoindolin-2-yl)piperidine-2,6-dione] | 1 to 10 µM | 1 to 10 µM
 |  | 0.01 to 0.05 µM | > 75% |  | NC(=O)c1c(-c2ccc(Oc3ccccc3)cc2)nn2c1NCC[C@H]2C1CCN(C2CCN(C(=O)N3CCC(CC4CCN(c5ccc6c(c5)C(=O)N(C5CCC(=O)NC5=O)C6=O)CC4)CC3)CC2)CC1 (stereo partly drawn) [Compound 393, (7S)-7-(1′-(4-((1-(2-(2,6-dioxopiperidin-3-yl)-1,3-dioxoisoindolin-5-yl)piperidin-4-yl)methyl)piperidine-1-carbonyl)-[1,4′-bipiperidin]-4-yl)-2-(4-phenoxyphenyl)-4,5,6,7-tetrahydropyrazolo[1,5-a]pyrimidine-3-carboxamide] | 1 to 10 µM | 1 to 10 µM
